Several values for one entry are separate records, joined by “and”; a condition that tells them apart may be missing. Equal values may be shown once.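 Step 1: Grow cells in 96-well plates. Step 2: Expose to compound for 48 hours at 5 concentrations. Step 3: Interpolate endpoints linearly; if unreached, use highest concentration. GI50 = concentration required for 50% inhibition of growth. TGI marks complete inhibition of growth.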
Columns and labels:
Test in all cases: NCI-60 cell line screen, 48 h
SW-620 colon = test system: SW-620 colon
NCI/ADR-RES ovarian = test system: NCI/ADR-RES ovarian
SF-295 CNS = test system: SF-295 CNS
U251 CNS = test system: U251 CNS
MALME-3M melanoma = test system: MALME-3M melanoma
SN12C renal = test system: SN12C renal
HS 578T breast = test system: HS 578T breast
A549 NSCLC = test system: A549 NSCLC
UACC-62 melanoma = test system: UACC-62 melanoma
SR leukemia = test system: SR leukemia

Structure (SMILES)	GI50 (SW-620 colon)	TGI (SW-620 colon)	GI50 (NCI/ADR-RES ovarian)	TGI (NCI/ADR-RES ovarian)	GI50 (SF-295 CNS)	TGI (SF-295 CNS)	GI50 (U251 CNS)	TGI (U251 CNS)	GI50 (MALME-3M melanoma)	TGI (MALME-3M melanoma)	GI50 (SN12C renal)	TGI (SN12C renal)	GI50 (HS 578T breast)	TGI (HS 578T breast)	GI50 (A549 NSCLC)	TGI (A549 NSCLC)	GI50 (UACC-62 melanoma)	TGI (UACC-62 melanoma)	TGI (SR leukemia)	GI50 (SR leukemia)
Cn1c2c(c3ccc([N+](=O)[O-])cc3c1=O)C(=O)c1ccccc1-2	> 100 µM	> 100 µM	> 100 µM	> 100 µM	22.7 µM	> 100 µM	> 100 µM	> 100 µM	70.3 µM	> 100 µM	> 100 µM	> 100 µM	> 100 µM	> 100 µM	> 100 µM	> 100 µM	> 100 µM	> 100 µM		
Cc1cccc(C)c1NC(=O)C1C(=O)N(c2c(C)cccc2C)C(=O)/C1=N\N (stereo not given)		> 100 µM				> 100 µM		> 100 µM		> 100 µM		> 100 µM				> 100 µM		> 100 µM	> 100 µM	
NCCCCCCCn1c2c(c3ccccc3c1=O)C(=O)c1ccccc1-2	1.14 µM	2.42 µM	2.56 µM	7.87 µM	1.74 µM	4.28 µM	2.48 µM	7.07 µM	1.98 µM	4.01 µM	1.94 µM	5.84 µM	1.8 µM	4.31 µM	3.27 µM	18.3 µM	2.01 µM	3.85 µM		
O=C(Nc1ccncc1)C(=O)c1cn(S(=O)(=O)c2ccc(Cl)cc2)c2ccccc12	1.35 µM	> 100 µM	0.369 µM	> 100 µM	1.68 µM	14.9 µM	1.06 µM	17.8 µM	0.894 µM	> 100 µM	2.02 µM	> 100 µM	11.2 µM	> 100 µM	17.5 µM	> 100 µM	0.503 µM	14.2 µM		
CC(=O)C1C(c2ccc(N(C)C)cc2)c2cc3c(cc2OC1(C)O)OCO3 (stereo not given)		> 100 µM				71.2 µM		> 100 µM		> 100 µM		> 100 µM				> 100 µM		> 100 µM		
Oc1ccc2ccccc2c1N=Nc1ccsc1		> 100 µM				> 100 µM		> 100 µM		> 100 µM		> 100 µM				> 100 µM		> 100 µM	> 100 µM	
CC12CCC3(OCCO3)C(OC(=O)c3ccccc3)=C1CCC21OCCO1 (stereo not given)		> 100 µM				> 100 µM		> 100 µM		> 100 µM		> 100 µM				> 100 µM		> 100 µM	> 100 µM	
COc1cc(N(C)C)c(OC)cc1/C=C\c1ccnc2ccccc12		> 10 µM		7.66 µM		> 10 µM		> 10 µM		> 10 µM		> 10 µM		> 10 µM		> 10 µM		> 10 µM		
Cc1ccc(NC(=O)CC2Sc3ccccc3NC2=O)c(C)c1 (stereo not given)		56 µM				40.2 µM		33.1 µM		47.7 µM		> 100 µM				39.7 µM		48.9 µM		
C/C(CC(=O)Nc1ccc(C)c(C)c1)=N\NC(N)=O		> 100 µM				> 100 µM		> 100 µM		> 100 µM						> 100 µM		> 100 µM		
COc1c2ccoc2c(OC)c2oc(=O)ccc12		> 100 µM		> 100 µM		> 100 µM		> 100 µM				> 100 µM		> 100 µM		> 100 µM		> 100 µM	> 100 µM	
O=[P+](O)c1ccsc1		> 100 µM						> 100 µM				> 100 µM				> 100 µM		> 100 µM		
O=c1c(Br)cc2nc3ccccc3sc-2c1Br		> 100 µM				> 100 µM		> 100 µM		> 100 µM		> 100 µM				> 100 µM		79.8 µM	> 100 µM	
O=C(c1ccccc1)C1OC1c1ccc([N+](=O)[O-])cc1 (stereo not given)	2.42 µM	6.6 µM	2.58 µM	9.36 µM	4.76 µM	46 µM	9.86 µM	> 100 µM	6.22 µM	> 100 µM	10.1 µM	> 100 µM	3.33 µM	35.2 µM	24.9 µM	> 100 µM	11.3 µM	42.5 µM		
O=C(O)CCC(N=Cc1nc(-c2ccccc2)oc1O)C(=O)O (stereo not given)		> 100 µM				> 100 µM		> 100 µM		> 100 µM		> 100 µM				> 100 µM		> 100 µM	> 100 µM	
CCOC(=O)N1CCC(=O)C(CNC23CC4CC(CC(C4)C2)C3)C1 (stereo not given)		39.5 µM				> 100 µM		> 100 µM		37.7 µM		> 100 µM				> 100 µM		> 100 µM	51.6 µM	
COC(=O)c1cc(O)c2cc3c(cc2c1-c1cc(OC)c(OC)c(OC)c1)OCO3	0.496 µM	> 100 µM	0.462 µM	> 100 µM	0.536 µM	5.03 µM	0.577 µM	> 100 µM	0.815 µM	> 100 µM			1.43 µM	9.48 µM	0.762 µM	> 100 µM	1.17 µM	> 100 µM		
CC(C)([NH-])CO.CC(C)([NH-])CO.[Cl][Cd][Cl]	18.6 µM	38.9 µM			> 100 µM	> 100 µM	15.4 µM	28.8 µM	8.6 µM	22.4 µM					30.2 µM	> 100 µM	7.82 µM	25 µM	44.5 µM	20 µM
CCC/C(=N\NC(=S)N1CC2CCC(CC2)C1)c1ccccn1		0.555 µM and 0.221 µM			0.114 µM	1.2 µM	0.142 µM	0.627 µM and 1.38 µM		2.76 µM and 1.99 µM	0.161 µM	4.54 µM and 4.73 µM		4.43 µM	0.122 µM	5.23 µM and 2.01 µM	0.0329 µM	1.14 µM and 0.642 µM	2.77 µM	
CCN(CC)CC(O)CNc1c2ccc([N+](=O)[O-])cc2nc2cc(OC)c(OC)cc12 (stereo not given)	0.289 µM	2.37 µM	4.63 µM	18.7 µM	0.41 µM	2.06 µM			0.249 µM	0.573 µM	0.335 µM	2.79 µM	0.728 µM	5.09 µM	0.262 µM	0.854 µM	0.453 µM	1.8 µM	11.1 µM	0.303 µM

Reference: PubChem BioAssay (NCI)
